Results taken from patent US20100004342A1, “LFA-1 Inhibitors and Use Thereof” (priority 2003, published 2010).
“Also recorded” adds a separate entry of the source. Like-named read-outs stand apart in the source and are kept apart here.

Tests used:
[1] = tested on: vascular endothelial cell; settings: cited from earlier work
LFA-1 and ICAM-1 = LFA-1 and ICAM-1 (Homo sapiens, UniProt P20701); settings: cited from earlier work
CD11a = test: Detection of cell membrane differentiation antigen CD11a of human peripheral blood monocyte (FACS); assay type: cell-based; settings: for number of the cell expressing CD11a on the cell surface / rate to the total cells of the cells with expression of CD11a or CD18: peripheral blood monocytes cultured with polyamine
Text: (§1) Human peripheral blood was collected, and peripheral blood monocytes including lymphocyte, monocyte and the like were recovered from the collected blood by specific gravity centrifugation technique using SEPARATE-L (Muto Pure Chemicals Co. LTD., Tokyo, Japan). Next, the recovered peripheral blood monocytes were suspended in PRMI1640 culture medium (Sigma chemical co., St. Louis, USA) mixed with 10% human serum (Wako Pure Chemical Industries LTD., Osaka, Japan), 0.1% L-glutamine (Invitrogen Corp., CA, USA), and 0.01% penicillin-streptomycin (Invitrogen Corp., CA, USA) and cultured in the humidified air at 37° C. containing 5% carbonic acid gas. […] Following culture for a given time, the peripheral blood monocytes were recovered from the culture medium and used in Examples 2, 4, 5, and 6.
For confirming that obtained experimental results were not derived from changes produced by the polyamines present in the culture medium and kept in contact with the cells for a long time, different peripheral blood monocytes were prepared.
(§2) The peripheral blood monocytes cultured for 16 to 80 hours by the method of Example 1 were collected from the cell culture plate so as not to damage the cells. The collected cells were washed with PBS (−) solution and then fixed using phosphate buffered saline without calcium chloride and without magnesium chloride (hereinafter, referred to as PBS (−); Invitrogen Corporation, GIBCO, Grand Island, N.Y., USA) containing 2% paraformaldehyde (Wako Pure Chemical Industries LTD, Osaka, Japan), so as not to achieve change in cell membrane antigen molecules on the cell surface of the peripheral blood monocytes. The peripheral blood monocytes were further washed, to which antibodies to the cell membrane antigen molecules were then added in an amount corresponding to 5 μL (microliter) per 500000 cells. The antibodies used here are CD2 (FITC label), CD4 (FITC), CD8 (PE label), CD11a (FITC), CD11b (PE), CD11c (PE), CD18 (FITC), CD31 (PE), CD49d (PE), CD49e (PE), CD54 (PE), CD62L (PE), CD95 (FITC), and VIA-PROBE (FITC). All of these antibodies are manufactured by PharMingen (A Becton Dickinson Company, San Jose, Calif., USA).
(§3) After each antibody was added to the cells and reacted in the dark for 20 minutes, positive rate and light intensity of the cell membrane differentiation antigen expressed in the cultured peripheral blood were measured with FACS analyzer (FACSCalibur; manufactured by Becton Dickinson) (Becton Dickinson Japan, Tokyo). The population of the peripheral blood monocytes was of interest in the measurement of florescence of the cell surface, and the measurement of all of the cultured cells was also conducted at the same time. Further, a negative control was used, and a measurement gate was set to obtain each antibody positive rate of the cells within the gate and average fluorescence intensity of the positive cells.

[2] = tested on: peripheral blood monocytes; test: Peripheral blood monocyte adhesion to culture plate (MTT); assay type: cell-based, human; settings: for number of the cells adhering on the plate surface: cultured with varying concentrations of polyamines for 70 to 80 hours; for inhibition effect on cell adhesion to the cell culture plate: culture for approximately 16 to 24 hours
Experimental: Peripheral blood monocytes were cultured on a 96-well cell culture plate using the culture medium described above. […] Following the culture, the cell culture plate was washed three times with PBS (−) solution to remove the cells floating in the culture medium. As a result, there remained only the cells adhering on the inside bottom of the cell culture plate. […] The culture supernatant was removed. As a result, there remained only the cells firmly adhering on the inside bottom of the cell culture plate, as described above. […] Thiazolyl blue (MTT) (C18H16N5SBr) (Sigma. St. Louis, USA) was added in the final concentration of 0.35 mg/mL, and the cells were cultured at 37° C. for 2 to 4 hours until the cells were stained. MTT is taken up into cells, and the dye is discolored only in live cells. Therefore, the amount of the live cells existing can be confirmed from the amount of the dye. This means that the larger the amount of the dye is, the higher the number of the cells and the cell activity are. After the cells were sufficiently stained with MTT, the culture supernatant was removed by aspiration. The cells were dissolved by addition of 100 μl of cell lysis solution (2-propanol (isopropanol; Wako Pure Chemical Industries LTD, Osaka, Japan) mixed with 12 M (mol/L) hydrochloric acid (HCl; Wako Pure Chemical Industries LTD, Osaka, Japan)), to recover the dye in the cells. Absorbance in the cell culture plate was measured at 2 absorbance wavelengths of 570 nm and 690 nm using an absorbance reader (Titertek Multiskan MCC/340, Labsystems, Flow Laboratories Inc., USA).

[3] = tested on: vascular endothelial cells; test: Peripheral blood monocyte adhesion to vascular endothelial cell (BCECF-AM); assay type: cell-based, human; settings: for number of the cells adhering to the vascular endothelial cells: cultured with 100 or 500 μM polyamine for 72 to 80 hours, compared with culture without
rats [4] = settings: cited from earlier work
[5] = tested on: adhesion molecules (CD11b, CD11c, CD31, CD49d, CD49e, CD54, and CD62L); test: Detection of adhesion molecules except CD11a and CD18 on human peripheral blood monocyte (FACS); assay type: cell-based; settings: for average fluorescence intensity of adhesion molecules (CD11b, CD11c, CD31, CD49d, CD49e, CD54, and CD62L) except CD11a and CD18: peripheral blood monocytes cultured with polyamine
Text: as §1, §2, §3

[6] = tested on: peripheral blood monocytes; test: Blastogenesis of peripheral blood monocytes by Con-A or PHA (3H-thymidine); assay type: cell-based, human; settings: cultured with 100 μM polyamine for approximately 12 to 18 hours
Experimental: Following the culture, the cells were washed three times with PBS (−) to remove extracellular polyamines, The washed peripheral blood monocytes were cultured for 64 hours in culture medium (RPMI1640 containing 10% fetal bovine serum) mixed with PHA (Difco Laboratories, Detroit, Mich., USA) or Con-A (Sigma chemical co., St. Louis, USA). Then, ^3H-thymidine (Amersham) was added to the cells, followed by additional culture for 8 hours. Following the culture, the peripheral blood monocytes were recovered, and radioactivity of the cells was measured (liquid scintillation counter, LKB-1205, LKB). Since the peripheral blood monocytes activated by mitogen (PHA, Con-A, or the like) cause blast transformation, the cells take up ^3H-thymidine therein. Accordingly, function of cell activation can be measured by measuring the amount of intracellular ^3H-thymidine.

CD18 = test: Detection of cell membrane differentiation antigen CD18 of human peripheral blood monocyte (FACS); assay type: cell-based; settings: peripheral blood monocytes cultured with polyamine
Text: as §1, with “6. […]” for “6.”
(§4) After each antibody was added to the cells and reacted in the dark for 20 minutes, positive rate and light intensity of the cell membrane differentiation antigen expressed in the cultured peripheral blood were measured with FACS analyzer (FACSCalibur; manufactured by Becton Dickinson) (Becton Dickinson Japan, Tokyo). […] Further, a negative control was used, and a measurement gate was set to obtain each antibody positive rate of the cells within the gate and average fluorescence intensity of the positive cells.

[7] = tested on: peripheral blood monocytes; test: Number and activity of the total cultured cells (MTT), cytotoxicity check; assay type: cell-based, human; settings: for cellular cytotoxicity to the peripheral blood monocytes: high concentrations (up to 1 mM); for amount of the MTT dye taken up into the cells (total cultured cells): total cells in the plate, varying polyamine concentration
Experimental: Then, the culture supernatant in the plate was removed with the utmost caution not to soak up the cells adhering on the inside bottom of the plate. This means that all the cells present in the cell culture plate exist on the inside bottom of the plate. […] Absorbance of the cell culture medium was measured at 2 absorbance wavelengths of 570 nm and 690 nm using an absorbance reader (Titertek Multiskan MCC/340, Labsystems, Flow Laboratories Inc., USA). As a result, each polyamine concentration and the total amount of live cells of the cultured peripheral blood monocytes can be confirmed.

rats [8] = settings: cited from earlier work; remark: listed apart in the source
[9] = tested on: peripheral blood monocytes; settings: for cellular cytotoxicity: peripheral blood monocytes, VIA-Probe
Text: as §1, §2, §3

[10] = tested on: CD16, CD31, CD49d, and CD54; settings: peripheral blood monocyte accidentally infected; cultured with spermine
Experimental: as §2, with “The antibodies used here are CD2 (FITC label), CD4 (FITC), CD8 (PE label), CD11a (FITC), CD11b (PE), CD11c (PE), CD18 (FITC), CD31 (PE), CD49d (PE), CD49e (PE), CD54 (PE), CD62L (PE), CD95 (FITC), and VIA-PROBE (FITC). All of these antibodies are manufactured by PharMingen (A Becton Dickinson Company, San Jose, Calif., USA).” left out
as §4

[11] = tested on: Daudi cells (Burkitt lymphoma cells); settings: cultured overnight with 100 μM spermine, then IL-2 for 72 hours
intestinal mucosa = settings: contained in meal; cited from earlier work
[12] = tested on: functional cell membrane differentiation antigen except adhesion molecules
Text: as §1, §2, §3

psoriasis = settings: clinical examples, human; cited from earlier work
[13] = peripheral blood monocytes cultured with polyamine (0, 100, 500 μM) for 70 to 80 hours

Chain of LFA-1 and ICAM-1 (P20701 26-1170): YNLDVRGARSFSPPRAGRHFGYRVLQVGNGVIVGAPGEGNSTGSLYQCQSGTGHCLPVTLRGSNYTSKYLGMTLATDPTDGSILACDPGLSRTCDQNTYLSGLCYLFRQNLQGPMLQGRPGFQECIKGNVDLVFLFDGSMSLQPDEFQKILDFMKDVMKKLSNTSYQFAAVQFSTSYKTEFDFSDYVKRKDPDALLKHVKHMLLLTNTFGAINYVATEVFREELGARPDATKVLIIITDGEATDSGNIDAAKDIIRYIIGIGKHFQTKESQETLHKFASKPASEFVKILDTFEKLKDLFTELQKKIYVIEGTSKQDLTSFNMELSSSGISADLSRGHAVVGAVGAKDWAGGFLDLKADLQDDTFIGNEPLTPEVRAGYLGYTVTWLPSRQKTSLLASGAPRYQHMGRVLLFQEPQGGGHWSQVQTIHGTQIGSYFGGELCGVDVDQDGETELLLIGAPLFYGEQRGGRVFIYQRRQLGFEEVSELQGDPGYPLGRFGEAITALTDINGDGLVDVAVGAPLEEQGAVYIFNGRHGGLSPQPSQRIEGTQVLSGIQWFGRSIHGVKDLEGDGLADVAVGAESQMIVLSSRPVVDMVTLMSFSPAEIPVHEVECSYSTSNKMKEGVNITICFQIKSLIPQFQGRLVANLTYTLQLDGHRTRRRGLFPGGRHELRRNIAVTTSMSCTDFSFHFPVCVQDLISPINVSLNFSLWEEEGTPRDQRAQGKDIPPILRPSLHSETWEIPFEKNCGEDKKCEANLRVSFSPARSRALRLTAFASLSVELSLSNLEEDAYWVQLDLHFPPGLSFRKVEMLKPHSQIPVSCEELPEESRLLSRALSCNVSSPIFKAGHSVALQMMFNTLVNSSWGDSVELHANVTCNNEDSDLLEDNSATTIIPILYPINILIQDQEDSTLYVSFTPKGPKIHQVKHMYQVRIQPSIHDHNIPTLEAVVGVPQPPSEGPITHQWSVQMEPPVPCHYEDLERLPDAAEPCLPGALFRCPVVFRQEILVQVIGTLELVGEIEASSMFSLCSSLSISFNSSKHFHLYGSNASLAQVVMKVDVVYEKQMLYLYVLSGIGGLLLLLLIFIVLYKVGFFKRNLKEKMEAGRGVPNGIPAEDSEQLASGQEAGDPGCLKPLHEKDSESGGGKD
Chain of LFA-1 and ICAM-1 (P05107 23-769 partner): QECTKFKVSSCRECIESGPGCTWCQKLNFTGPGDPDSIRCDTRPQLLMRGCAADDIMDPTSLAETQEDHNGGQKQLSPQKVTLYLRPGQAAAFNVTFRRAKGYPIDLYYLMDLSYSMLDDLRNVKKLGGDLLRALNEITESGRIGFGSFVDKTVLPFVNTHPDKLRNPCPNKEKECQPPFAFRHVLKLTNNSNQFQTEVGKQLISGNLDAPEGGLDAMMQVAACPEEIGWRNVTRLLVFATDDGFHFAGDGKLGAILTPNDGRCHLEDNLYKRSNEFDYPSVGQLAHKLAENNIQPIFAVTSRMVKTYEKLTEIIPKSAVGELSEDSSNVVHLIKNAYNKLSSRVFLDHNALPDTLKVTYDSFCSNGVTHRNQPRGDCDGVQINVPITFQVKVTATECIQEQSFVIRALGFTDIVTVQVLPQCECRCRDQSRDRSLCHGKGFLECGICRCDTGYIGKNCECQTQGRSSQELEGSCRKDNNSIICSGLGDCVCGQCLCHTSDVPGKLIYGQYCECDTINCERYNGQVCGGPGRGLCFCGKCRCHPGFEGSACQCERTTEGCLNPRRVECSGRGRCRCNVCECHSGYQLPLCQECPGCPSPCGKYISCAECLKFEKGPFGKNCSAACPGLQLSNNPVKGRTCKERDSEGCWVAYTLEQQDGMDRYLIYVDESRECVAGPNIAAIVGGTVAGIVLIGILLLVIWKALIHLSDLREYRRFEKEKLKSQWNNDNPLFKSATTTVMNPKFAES

| Compound | average fluorescence intensity of CD11a (CD11a; [13]) | number of the cells adhering on the plate surface [2] | number of the cells adhering to the vascular endothelial cells [3] | average fluorescence intensity of adhesion molecules (CD11b, CD11c, CD31, CD49d, CD49e, CD54, and CD62L) except CD11a and CD18 [5] | blastogenesis by Con-A or PHA [6] | average fluorescence intensity of CD18 (CD18) | cellular cytotoxicity to the peripheral blood monocytes [7] | amount of the MTT dye taken up into the cells (total cultured cells) [7] | number of the cell expressing CD11a on the cell surface (CD11a) | rate to the total cells of the cells with expression of CD11a or CD18 (CD11a) | cellular cytotoxicity [9] | inhibition effect on cell adhesion to the cell culture plate [2] | also measured |
| --- | --- | --- | --- | --- | --- | --- | --- | --- | --- | --- | --- | --- | --- |
| CC(C)c1c(C(=O)Nc2ccccc2)c(-c2ccccc2)c(-c2ccc(F)cc2)n1CC[C@@H](O)C[C@@H](O)CC(=O)O [atorvastatin] |  |  |  |  |  |  |  |  |  |  |  |  | monocyte adhesion to vascular endothelial cell [1]: inhibits monocyte adhesion to vascular endothelial cell |
| CC[C@H](C)C(=O)O[C@H]1C[C@@H](C)C=C2C=C[C@H](C)[C@H](CC[C@@H]3C[C@@H](O)CC(=O)O3)[C@H]21 [lovastatin] |  |  |  |  |  |  |  |  |  |  |  |  | adhesion between LFA-1 and ICAM-1 (LFA-1 and ICAM-1): blocks adhesion between LFA-1 and ICAM-1 |
| Cl.Cl.NCCCCN [putrescine, 1,4-Butanediamine dihydrochloride, reference compound] | not evident | not inhibited | not inhibited |  |  |  |  |  |  |  |  |  |  |
| NCCCCNCCCN [spermidine, N-aminobutyl-1,3-diaminopropane] | inhibited dependently on spermidine concentration | decreased with increase of spermine and spermidine concentrations |  | not decreased | rather enhanced | decreased | no cellular cytotoxicity | no reduction | increased | not decreased | no cellular cytotoxicity | not exhibited | amount up to which no side effect is observed (rats [4]; subacute toxicity test, administration for 6 weeks): up to 83 mg/kg of body weight/day; 50% lethal dose (LD50) (rats [8]; rats, acute toxicity test): 600 mg/kg of body weight |
| NCCCNCCCCNCCCN [spermine, 4,9-diazadodecane-1,12-diamine] | reduced as spermine concentration was increased; also recorded: strongest | decreased with increase of spermine and spermidine concentrations | low | not decreased | rather enhanced | decreased with increase of spermine concentration | no cellular cytotoxicity | no change | increased | not decreased | no cellular cytotoxicity | not exhibited | expression of cell membrane differentiation antigen such as CD16, 31, 49d, and 54 (average fluorescence intensity) [10]: markedly decreased; cellular cytotoxicity (LAK activity) of the peripheral blood monocytes [11]: reduced; amount up to which no side effect is observed (rats [4]; rat, in vivo): up to 19 mg/kg of body weight/day; expression rate of adhesion molecules (expression positive rate) ([5]; cells cultured with spermine): not decreased; average fluorescence intensity of CD62L ([5]; peripheral blood monocytes cultured with spermine): obviously increased dependently on spermine concentration; average fluorescence intensity of CD11a (decreasing effect) (CD11a; cells cultured for 20 to 26 hours): not observed; number of the cells having strong fluorescent intensity (CD11a histogram) (CD11a; cells supplemented with spermine): decreased; average fluorescence intensity of CD11a (CD11a; cultured with spermine 16 to 24 hours, washed, then cultured without spermine 48 to 56 hours): decrease of the average fluorescence intensity of CD11a; 50% lethal dose (LD50) (rats [8]; rat, in vivo): 600 mg/kg of body weight; concentration in meal at which it has toxicity (intestinal mucosa): ≥ 0.2%; average fluorescence intensity of cell membrane differentiation antigens other than the adhesion molecules ([12]; FIG. 8, cells cultured with spermine): no decrease; expression rate of cell membrane differentiation antigen except adhesion molecules (expression positive rate) ([12]; cells cultured with spermine): not decreased; dead cells (VIA-Probe) ([9]; spermine concentration that most strongly decreased CD11a and CD18 fluorescence): not increased; inhibition of cell adhesion to the inside bottom of the culture plate ([2]; plate inverted and centrifuged (500 rpm, 5 minutes) after 70 to 82 hours culture): more remarkable result of the inhibition; number of the adhering cells (vascular endothelial cells) ([3]; culture with 500 μM spermine for 20 hours): not decreased |
| efalizumab: a CD11a antibody |  |  |  |  |  |  |  |  |  |  |  |  | psoriasis symptoms (psoriasis): improved |
